Data reported in patent publication US8124610B2, “Sodium channel inhibitors” (Icagen Inc., priority 2007, dated 2012).

Biological target: T1, hSCN9A (Homo sapiens, UniProt Q15858)
T1 construct: expressed in transfected cells
Test: Whole-cell patch-clamp electrophysiology (conventional or PatchXpress), HEK cells expressing hSCN9A, estimated IC-50
Format: cell-based
Conditions: estimated IC-50, HEK cells expressing hSCN9A; class symbols or bounds; read-out: SCN9A EIC-50
In short: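 Current through each channel was evoked by a 20 ms step to 0 mV following an 8 s conditioning prepulse at the cell's own half-inactivation voltage. Recordings used HEK lines stably expressing the channel, conventional or PatchXpress patch clamp, room temperature, pH 7.4 bath; inhibition taken as pre/post-compound amplitude change.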

T1 sequence (Q15858 whole entry): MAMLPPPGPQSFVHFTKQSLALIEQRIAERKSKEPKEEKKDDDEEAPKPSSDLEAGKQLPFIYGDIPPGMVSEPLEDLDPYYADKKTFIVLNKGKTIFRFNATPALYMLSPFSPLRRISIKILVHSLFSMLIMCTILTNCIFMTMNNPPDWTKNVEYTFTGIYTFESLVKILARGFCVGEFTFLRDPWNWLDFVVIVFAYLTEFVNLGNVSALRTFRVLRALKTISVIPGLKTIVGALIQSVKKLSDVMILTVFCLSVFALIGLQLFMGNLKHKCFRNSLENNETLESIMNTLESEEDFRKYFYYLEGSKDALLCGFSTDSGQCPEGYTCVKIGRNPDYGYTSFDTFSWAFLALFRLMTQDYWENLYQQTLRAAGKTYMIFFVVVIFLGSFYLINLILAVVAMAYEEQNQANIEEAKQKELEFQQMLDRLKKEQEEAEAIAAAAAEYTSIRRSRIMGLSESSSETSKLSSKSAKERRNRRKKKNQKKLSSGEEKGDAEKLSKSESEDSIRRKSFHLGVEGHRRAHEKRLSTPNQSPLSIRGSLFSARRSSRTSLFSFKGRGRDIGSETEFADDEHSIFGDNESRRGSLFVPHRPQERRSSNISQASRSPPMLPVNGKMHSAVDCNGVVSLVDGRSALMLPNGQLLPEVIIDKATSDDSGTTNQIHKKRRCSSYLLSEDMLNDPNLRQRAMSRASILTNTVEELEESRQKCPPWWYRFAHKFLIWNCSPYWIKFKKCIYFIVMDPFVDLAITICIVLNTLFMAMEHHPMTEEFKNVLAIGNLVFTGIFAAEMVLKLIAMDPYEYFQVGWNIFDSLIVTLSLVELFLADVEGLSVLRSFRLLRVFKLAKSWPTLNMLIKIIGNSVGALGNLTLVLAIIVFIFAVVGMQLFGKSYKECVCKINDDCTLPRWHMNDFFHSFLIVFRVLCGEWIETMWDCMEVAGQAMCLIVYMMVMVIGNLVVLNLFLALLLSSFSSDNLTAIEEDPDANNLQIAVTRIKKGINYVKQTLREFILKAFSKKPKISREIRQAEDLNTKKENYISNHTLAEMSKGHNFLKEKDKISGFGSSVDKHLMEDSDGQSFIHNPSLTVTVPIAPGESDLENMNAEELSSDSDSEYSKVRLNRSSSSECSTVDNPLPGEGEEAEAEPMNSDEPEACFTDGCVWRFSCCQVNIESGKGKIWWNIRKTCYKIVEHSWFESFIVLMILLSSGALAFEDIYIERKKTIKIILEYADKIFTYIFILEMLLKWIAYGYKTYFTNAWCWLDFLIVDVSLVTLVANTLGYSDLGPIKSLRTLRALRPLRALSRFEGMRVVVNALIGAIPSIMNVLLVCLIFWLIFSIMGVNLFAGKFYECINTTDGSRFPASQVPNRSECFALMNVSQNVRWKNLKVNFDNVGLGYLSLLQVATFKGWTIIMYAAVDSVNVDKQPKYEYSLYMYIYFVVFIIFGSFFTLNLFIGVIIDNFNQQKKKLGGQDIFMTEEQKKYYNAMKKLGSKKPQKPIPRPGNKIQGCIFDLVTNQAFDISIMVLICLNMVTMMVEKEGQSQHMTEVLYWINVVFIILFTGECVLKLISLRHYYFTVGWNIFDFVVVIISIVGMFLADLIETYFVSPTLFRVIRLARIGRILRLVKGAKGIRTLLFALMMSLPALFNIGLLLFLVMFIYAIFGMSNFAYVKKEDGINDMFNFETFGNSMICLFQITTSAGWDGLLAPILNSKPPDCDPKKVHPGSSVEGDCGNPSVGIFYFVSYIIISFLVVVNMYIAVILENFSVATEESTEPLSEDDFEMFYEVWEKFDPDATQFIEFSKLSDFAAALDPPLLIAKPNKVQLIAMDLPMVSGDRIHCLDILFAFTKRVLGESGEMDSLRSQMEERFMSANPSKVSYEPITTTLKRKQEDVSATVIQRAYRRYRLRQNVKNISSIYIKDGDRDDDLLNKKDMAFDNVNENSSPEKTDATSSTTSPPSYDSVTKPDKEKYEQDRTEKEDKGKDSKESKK

Row | SMILES | IC50 [nM]
1 | CC(C)(C)n1nc(Cc2cccc(Cl)c2)cc1Nc1ccc(S(=O)(=O)Nc2nccs2)cc1F [Compound 195, 4-(1-tert-butyl-3-(3-chlorobenzyl)-1H-pyrazol-5-ylamino)-3-fluoro-N-(thiazol-2-yl)benzenesulfonamide] | < 2000
2 | Cc1cc(Nc2ccc(S(=O)(=O)Nc3nnc(C4CC4)s3)c(F)c2)n(-c2ccccc2)n1 [Compound 250, N-(5-cyclopropyl-1,3,4-thiadiazol-2-yl)-2-fluoro-4-(3-methyl-1-phenyl-1H-pyrazol-5-ylamino)benzenesulfonamide] | > 1000
3 | Cc1ccc(Cc2cc(Nc3ccc(S(=O)(=O)Nc4nccs4)c(F)c3)[nH]n2)cc1 [Compound 165, 2-fluoro-4-(3-(4-methylbenzyl)-1H-pyrazol-5-ylamino)-N-(thiazol-2-yl)benzenesulfonamide] | < 2000
4 | O=S(=O)(Nc1nccs1)c1ccc2c(cnn2CCCCc2ccccc2)c1 [Compound 278, 1-(4-phenylbutyl)-N-(thiazol-2-yl)-1H-indazole-5-sulfonamide] | < 2000
5 | O=S(=O)(Nc1cccnn1)c1ccc(Nc2ccn(Cc3ccc(Cl)cc3)n2)cc1F [Compound 260, 4-(1-(4-chlorobenzyl)-1H-pyrazol-3-ylamino)-2-fluoro-N-(pyridazin-3-yl)benzenesulfonamide] | > 1000
6 | Cn1nc(Cc2ccc(Cl)cc2)c(C#N)c1Nc1ccc(S(=O)(=O)Nc2nccs2)cc1 [Compound 119, 4-(3-(4-chlorobenzyl)-4-cyano-1-methyl-1H-pyrazol-5-ylamino)-N-(thiazol-2-yl)benzenesulfonamide] | 2000 to 10000
7 | Cc1cccc(-n2nc(C)cc2Nc2ccc(S(=O)(=O)Nc3nccs3)c(F)c2)c1 [Compound 176, 2-fluoro-4-(3-methyl-1-m-tolyl-1H-pyrazol-5-ylamino)-N-(thiazol-2-yl)benzenesulfonamide] | < 2000
8 | Cc1ccc(Cc2cc(Nc3ccc(S(=O)(=O)Nc4nccs4)cc3F)n(C)n2)cc1 [Compound 160, 3-fluoro-4-(1-methyl-3-(4-methylbenzyl)-1H-pyrazol-5-ylamino)-N-(thiazol-2-yl)benzenesulfonamide] | < 2000
9 | CN(C)C(=O)Cc1cc(Nc2ccc(S(=O)(=O)Nc3nccs3)c(F)c2)n(-c2ccccc2)n1 [Compound 213, 2-(5-(3-fluoro-4-(N-thiazol-2-ylsulfamoyl)phenylamino)-1-phenyl-1H-pyrazol-3-yl)-N,N-dimethylethanamide] | 2000 to 10000
10 | Cc1cc(Nc2ccc(S(=O)(=O)Nc3nnc(C)o3)c(F)c2)n(-c2ccccc2)n1 [Compound 237, 2-fluoro-N-(5-methyl-1,3,4-oxadiazol-2-yl)-4-(3-methyl-1-phenyl-1H-pyrazol-5-ylamino)benzenesulfonamide] | 2000 to 10000
11 | NC(=O)c1cn(Cc2ccc(Cl)cc2)nc1Nc1ccc(S(=O)(=O)Nc2nccs2)c(F)c1 [Compound 221, 1-(4-chlorobenzyl)-3-(3-fluoro-4-(N-thiazol-2-ylsulfamoyl)phenylamino)-1H-pyrazole-4-carboxamide] | 2000 to 10000
12 | Cc1cc(Nc2ccc(S(=O)(=O)Nc3nccs3)c(F)c2)n(-c2c(F)cccc2F)n1 [Compound 190, 4-(1-(2,6-difluorophenyl)-3-methyl-1H-pyrazol-5-ylamino)-2-fluoro-N-(thiazol-2-yl)benzenesulfonamide] | < 2000
13 | Cn1nc(Cc2cccc(Cl)c2)cc1Nc1ccc(S(=O)(=O)Nc2nccs2)cc1F [Compound 219, 4-(3-(3-chlorobenzyl)-1-methyl-1H-pyrazol-5-ylamino)-3-fluoro-N-(thiazol-2-yl)benzenesulfonamide] | < 2000
14 | Cc1cc(Nc2ccc(S(=O)(=O)Nc3nnc(-c4ccccc4)s3)c(F)c2)n(-c2ccccc2)n1 [Compound 241, 2-fluoro-4-(3-methyl-1-phenyl-1H-pyrazol-5-ylamino)-N-(5-phenyl-1,3,4-thiadiazol-2-yl)benzenesulfonamide] | 2000 to 10000
15 | COc1ccccc1-n1nc(C)cc1Nc1ccc(S(=O)(=O)Nc2nccs2)cc1F [Compound 215, 3-fluoro-4-(1-(2-methoxyphenyl)-3-methyl-1H-pyrazol-5-ylamino)-N-(thiazol-2-yl)benzenesulfonamide] | < 2000
16 | COc1ccccc1Cc1cc(Nc2ccc(S(=O)(=O)Nc3nccs3)cc2)n(C)n1 [Compound 127, 4-(3-(2-methoxybenzyl)-1-methyl-1H-pyrazol-5-ylamino)-N-(thiazol-2-yl)benzenesulfonamide] | 2000 to 10000
17 | CC(C)(C)n1nc(Cc2cccc(Cl)c2)cc1Nc1ccc(S(=O)(=O)Nc2nccs2)c(F)c1 [Compound 164, 4-(1-tert-butyl-3-(3-chlorobenzyl)-1H-pyrazol-5-ylamino)-2-fluoro-N-(thiazol-2-yl)benzenesulfonamide] | < 2000
18 | Cn1nc(Cc2ccc(Cl)c(F)c2)cc1Nc1ccc(S(=O)(=O)Nc2nccs2)cc1F [Compound 209, 4-(3-(4-chloro-3-fluorobenzyl)-1-methyl-1H-pyrazol-5-ylamino)-3-fluoro-N-(thiazol-2-yl)benzenesulfonamide] | < 2000

Row | SMILES | IC50 [nM]
19 | O=S(=O)(Nc1nccs1)c1ccc(Nc2ncn(Cc3ccc(Cl)cc3)n2)c(F)c1 [Compound 199, 4-(1-(4-chlorobenzyl)-1H-1,2,4-triazol-3-ylamino)-3-fluoro-N-(thiazol-2-yl)benzenesulfonamide] | < 2000
20 | Cc1cccc(NS(=O)(=O)c2ccc(Nc3ccn(Cc4ccc(Cl)cc4)n3)cc2F)n1 [Compound 259, 4-(1-(4-chlorobenzyl)-1H-pyrazol-3-ylamino)-2-fluoro-N-(6-methylpyridin-2-yl)benzenesulfonamide] | > 3000
21 | Cc1cc(Nc2ccc(S(=O)(=O)Nc3nccs3)c(F)c2)n(-c2cccc(F)c2)n1 [Compound 177, 2-fluoro-4-(1-(3-fluorophenyl)-3-methyl-1H-pyrazol-5-ylamino)-N-(thiazol-2-yl)benzenesulfonamide] | < 2000
22 | Cn1nc(Cc2ccc(Cl)c(F)c2)cc1Nc1ccc(S(=O)(=O)Nc2nccs2)c(F)c1 [Compound 210, 4-(3-(4-chloro-3-fluorobenzyl)-1-methyl-1H-pyrazol-5-ylamino)-2-fluoro-N-(thiazol-2-yl)benzenesulfonamide] | < 2000
23 | O=S(=O)(Nc1nccs1)c1ccc(Nc2ncn(Cc3ccccc3Cl)n2)c(F)c1 [Compound 208, 4-(1-(2-chlorobenzyl)-1H-1,2,4-triazol-3-ylamino)-3-fluoro-N-(thiazol-2-yl)benzenesulfonamide] | < 2000
24 | Cc1cc(Nc2ccc(S(=O)(=O)Nc3nccs3)c(OC(F)(F)F)c2)n(-c2ccccc2)n1 [Compound 270, 4-(3-methyl-1-phenyl-1H-pyrazol-5-ylamino)-N-(thiazol-2-yl)-2-(trifluoromethoxy)benzenesulfonamide] | > 1000
25 | Cn1nc(Cc2ccc(Cl)cc2)c(C(N)=O)c1Nc1ccc(S(=O)(=O)Nc2nccs2)cc1 [Compound 121, 3-(4-chlorobenzyl)-1-methyl-5-(4-(N-thiazol-2-ylsulfamoyl)phenylamino)-1H-pyrazole-4-carboxamide] | > 1000
26 | Cc1nnc(NS(=O)(=O)c2ccc(Nc3ccn(Cc4ccc(Cl)cc4)n3)cc2F)o1 [Compound 261, 4-(1-(4-chlorobenzyl)-1H-pyrazol-3-ylamino)-2-fluoro-N-(5-methyl-1,3,4-oxadiazol-2-yl)benzenesulfonamide] | > 1000
27 | Cc1cc(Nc2ccc(S(=O)(=O)Nc3nccs3)c(F)c2)n(-c2c(Cl)cccc2Cl)n1 [Compound 189, 4-(1-(2,6-dichlorophenyl)-3-methyl-1H-pyrazol-5-ylamino)-2-fluoro-N-(thiazol-2-yl)benzenesulfonamide] | < 2000
28 | O=S(=O)(Nc1nc(C(F)(F)F)co1)c1ccc(Nc2nc(Cc3ccc(Cl)cc3)cs2)cc1 [Compound 258, 4-(4-(4-chlorobenzyl)thiazol-2-ylamino)-N-(4-(trifluoromethyl)oxazol-2-yl)benzenesulfonamide] | > 1000
29 | Cc1cc(Nc2ccc(S(=O)(=O)Nc3nccs3)c(F)c2)n(C2CCN(C)CC2)n1 [Compound 202, 2-fluoro-4-(3-methyl-1-(1-methylpiperidin-4-yl)-1H-pyrazol-5-ylamino)-N-(thiazol-2-yl)benzenesulfonamide] | 2000 to 10000
30 | Cc1cc(Nc2ccc(S(=O)(=O)Nc3ncns3)c(F)c2)n(-c2ccccc2)n1 [Compound 240, 2-fluoro-4-(3-methyl-1-phenyl-1H-pyrazol-5-ylamino)-N-(1,2,4-thiadiazol-5-yl)benzenesulfonamide] | 2000 to 10000
31 | Cc1nn(Cc2ccc(Cl)cc2)c(C)c1Nc1ccc(S(=O)(=O)Nc2nccs2)c(F)c1 [Compound 225, 4-(1-(4-chlorobenzyl)-3,5-dimethyl-1H-pyrazol-4-ylamino)-2-fluoro-N-(thiazol-2-yl)benzenesulfonamide] | 2000 to 10000
32 | O=S(=O)(Nc1nnc(C(F)(F)F)s1)c1ccc(Nc2ccn(Cc3ccc(Cl)cc3)n2)cc1F [Compound 243, 4-(1-(4-chlorobenzyl)-1H-pyrazol-3-ylamino)-2-fluoro-N-(5-(trifluoromethyl)-1,3,4-thiadiazol-2-yl)benzenesulfonamide] | 2000 to 10000
33 | O=S(=O)(Nc1nccs1)c1ccc(Nc2cnn(Cc3ccc(Cl)c(C(F)(F)F)c3)c2)cc1F [Compound 229, 4-(1-(4-chloro-3-(trifluoromethyl)benzyl)-1H-pyrazol-4-ylamino)-2-fluoro-N-(thiazol-2-yl)benzenesulfonamide] | < 2000
34 | Cc1cc(Nc2ccc(S(=O)(=O)Nc3nccs3)c(F)c2)n(-c2ccccc2C(F)(F)F)n1 [Compound 179, 2-fluoro-4-(3-methyl-1-(2-(trifluoromethyl)phenyl)-1H-pyrazol-5-ylamino)-N-(thiazol-2-yl)benzenesulfonamide] | < 2000
35 | Cc1cc(Nc2ccc(S(=O)(=O)Nc3nccs3)cc2)n(Cc2ccc(Cl)cc2)n1 [Compound 128, 4-(1-(4-chlorobenzyl)-3-methyl-1H-pyrazol-5-ylamino)-N-(thiazol-2-yl)benzenesulfonamide] | 2000 to 10000
